Laboratory results reported in US9873918B2, “Treatment of acute myeloid leukemia and myelodysplastic syndromes” (Albert Einstein College of Medicine, Inc., priority 2011, dated 2018).

Assays:
Assay in all cases: Colony formation (clonogenic) assay in methylcellulose after lentiviral IL1RAP shRNA knockdown
Format in all cases: cell-based, human
Settings in all cases: p<0.05
HEL cells = test system: HEL cells
Excerpt: (§1) FIG. 18A-18B. IL1RAP knockdown decreases clonogenic potential and leads to increased cell death of AML cells. A) Colony formation assay in semisolid methylcellulose media of AML cells (THP-1, OCI-AML3, HEL, HL-60) infected with control and two IL1RAP-directed shRNAs. Mean and standard deviations are shown. Asterisks indicate statistical significance (p<0.05). B) Analysis of apoptosis/necrosis with Annexin V/DAPI in THP-1 cells infected with control and IL1RAP shRNAs. […] Statistical significance is indicated (* indicate p<0.05).
(§2) For knockdown studies, shRNA template oligonucleotides (Luciferase Control shRNA: 5′-[…]-3′ (SEQ ID NO:3); IL-1RAP shRNA 1: 5′-[…]-3′ (SEQ ID NO:4); IL-1RAP shRNA 2: 5′-[…]-3′) (SEQ ID NO:5) were cloned into the pSIH1-H1-copGFP shRNA vector system (System Biosciences, Mountain View, Calif.). For production of lentiviral particles, lentiviral constructs with packaging vectors were transfected into 293T producer cells using Fugene HD transfection reagent (Roche). Supernatant was harvested after 48 and 72 hours, and concentrated by ultracentrifugation. For knockdown studies, HL60, HEL, OCI-AML3, MOLM-13, THP1 and UT-7 cell lines were transfected with the short-hairpin-containing lentivirus (MOI=10), incubated for 48 or 72 hours. After culture with fresh medium, GFP-positive cells were sorted using a FACS Aria II sorter (BD Biosciences) and used for experiments. Level of knockdown of Il-1RAP was determined by flow cytometry.
(§3) THP1 cells were transduced with these lentiviral shRNAs or with a non-silencing control, and subjected sorted GFP-positive, Annexin V-negative, DAPI-negative cells to clonogenic assays. Knockdown of IL1RAP led to a significant (p<0.05) 94% and 98% inhibition of leukemic colony formation of THP1 cells in comparison to the non-silencing control (FIG. 18A).

HL-60 cells = test system: HL-60 cells
Excerpt: as §1, §2, §3

OCI-AML3 cells = test system: OCI-AML3 cells
Excerpt: as §1, §2, §3

Row | Substance | reduced clonogenicity (HEL cells) [%] | reduced clonogenicity (HL-60 cells) [%] | reduced clonogenicity (OCI-AML3 cells) [%]
1 | shRNA#1: IL1RAP-directed lentiviral shRNA, template 5′-tggccttactctgatctggtattggacta-3′ (SEQ ID NO:4), in pSIH1-H1-copGFP vector (DNA TGGCCTTACTCTGATCTGGTATTGGACTA) | 69 | 45 | 51.5
2 | shRNA#2: IL1RAP-directed lentiviral shRNA, template 5′-cgggcattaattgatttcctactatattc-3′ (SEQ ID NO:5), in pSIH1-H1-copGFP vector (DNA CGGGCATTAATTGATTTCCTACTATATTC) | 81 | 38.5 | 62
